# Data from patent publication US20230242669A1, “ANTIBODY THAT BINDS ERBB-2 AND ERBB-3” (Merus N.V., priority 2014, published 2023).
# Test system: HER2 overexpressing cells (SK-BR-3, BT-474, N87)
# Assay: Drug combinations with PB4188 in vitro (checkerboard, isobolograms)
# Type: cell-based, human
# Details: HER2 amplified cells, HRG
# Description: Moreover, combination with chemotherapeutic drugs and cyclin inhibitors were tested. Combinations were tested on HER2 overexpressing cells growing in the presence of HRG in […]® (SK-BR-3 and BT-474) or in the presence of HRG stress concentrations (N87 and SK-BR-3 as described in proliferation assays). The inhibitory effect of drug combinations was tested by imaging or by measuring proliferation using Alamar Blue as described herein before. […] The extent of growth inhibition obtained with each combination was calculated. […] The inhibition values of the combination experiments were used by CHALICE™ Analyzer software to generate the isobolograms.
row,Structure (SMILES),Drug combination with PB4188 (isobologram analysis)
1,Cc1nc(NC(=O)N2CCC[C@H]2C(N)=O)sc1-c1ccnc(C(C)(C)C(F)(F)F)c1 [BYL719],synergistic
2,NC1(c2ccc(-c3nc4ccn5c(=O)[nH]nc5c4cc3-c3ccccc3)cc2)CCC1 [MK-2206],synergistic
3,CO[C@H]1C[C@@H]2CC[C@@H](C)[C@@](O)(O2)C(=O)C(=O)N2CCCC[C@H]2C(=O)O[C@H]([C@H](C)C[C@@H]2CC[C@@H](OCCO)[C@H](OC)C2)CC(=O)[C@H](C)/C=C(\C)[C@@H](O)[C@@H](OC)C(=O)[C@H](C)C[C@H](C)/C=C/C=C/C=C/1C [everolimus],synergistic
4,CS(=O)(=O)CCNCc1ccc(-c2ccc3ncnc(Nc4ccc(OCc5cccc(F)c5)c(Cl)c4)c3c2)o1 [lapatinib],synergistic
5,CCOc1cc2ncc(C#N)c(Nc3ccc(OCc4ccccn4)c(Cl)c3)c2cc1NC(=O)/C=C/CN(C)C [neratinib],synergistic
6,CC(=O)O[C@H]1C(=O)[C@@]2(C)[C@H]([C@H](OC(=O)c3ccccc3)[C@]3(O)C[C@H](OC(=O)[C@H](O)[C@@H](NC(=O)c4ccccc4)c4ccccc4)C(C)=C1C3(C)C)[C@]1(OC(C)=O)CO[C@@H]1C[C@@H]2O [paclitaxel],synergistic
7,O=C(CCCCCCC(=O)Nc1ccccc1)NO [vorinostat],synergistic
